Measured values from patent publication US10441681B2, “Materials and methods for nerve grafting” (University of Florida Research Foundation, Inc., priority 2001, dated 2019).

Assays:
[1] = system: rat sciatic nerve; test: Axonal regeneration after sciatic nerve transection (neurotmesis) and neurorrhaphic repair; type: in vivo
Method: All surgical procedures were performed according to Institutional Animal Care and Use Committee (IACUC) approved protocols. Young adult SPRAGUE DAWLEY rats (HARLAN Indianapolis, Ind.) were deeply anesthetized with xylazine (15 mg/kg, i.m.) followed by ketamine-HCl (110 mg/kg, i.p.). Six animals received bilateral nerve crush injuries. Sciatic nerves were exposed and then crushed with firm pressure for thirty seconds with a DUMONT #5 forceps at a site 4 mm distal to the tendon of the internal obdurator. The crush site was marked with an epineurial suture. In a separate set of experiments, eight rats received bilateral sciatic nerve transection injuries using serrated scissors. The proximal and distal stumps were coated by epineurial neurorrhaphy using 9-0 ETHILON sutures. Fibrin glue (fibrinogen and thrombin) was then applied to stabilize the union. In both injury models, the right sciatic nerves were injected 2-mm distal to the injury with chondroitinase ABC (1 U in 2 μl) (high-purity, protease-free; SIGMA CHEMICAL CO., St. Louis, […].). Left sciatic nerves (with the same injury as the right side) were injected with vehicle alone (0.1% bovine serum albumin in PBS). Muscle incisions were sutured and the skin closed with metal clips. After recovery from the anesthetic, animals were returned to standard housing. Two days (for crush injury) and four days (for transection injury) after surgery, nerves were removed under anesthesia and fixed as described below. One of the eight animals receiving nerve transection and repair was excluded because loss of continuity in one nerve occurred during convalescence.
The hypothesis that chondroitinase treatment improves axonal growth through the site of nerve coaptation was tested. Bilateral neurotmesis was achieved by a scissor cut of the sciatic nerves which were then repaired by epineurial suture and fibrin glue. One nerve was injected with chondroitinase ABC and the contralateral nerve received vehicle alone. Because of the latency of regeneration after nerve transection, axonal growth across the coaptation was examined four days after injury. In control nerves, the ingress of axons occurred mainly in patches and was limited to discrete subsections of the distal nerve; otherwise only a few axons were found scattered throughout the remaining nerve cross-section, as shown in FIG. 14A. The number of axons extending farther into the distal (after 4 days) rapidly diminished and approached zero within 3 mm from the coaptation. In contrast, axon ingress into chondroitinase-treated nerves was more robust and widespread throughout the entire nerve cross-section. In 7/7 animals, the number of axons that entered the distal nerve was greater in the chondroitinase-treated nerve than in the control nerve. […]

[2] = system: chick DRG neurons; test: Cryoculture assay using human nerve segments; type: cell-based; details: 24 h
Method: Cryoculture is a neurite outgrowth assay in which neurons are cultured directly on fresh/frozen nerve sections and was performed as described previously (Ferguson T A et al. [2000] Mol Cell Neurosci, 16:157-167). Briefly, chondroitinase- and vehicle-treated nerve segments were sectioned at 20 μm, mounted on sterile, aminopropyltriethoxysilane (APTS)-coated coverslips and stored at −20° C. until used. Where indicated, sections were treated with chondroitinase ABC (0.1 unit/ml) or vehicle (50 mM Tris-HCl, pH 8.0), containing 50 mM NaCl) for 2 h at 37° C. Purified dorsal root ganglionic (DRG) neurons from day 8 chick embryos were seeded directly on the nerve sections in a defined N2 medium (Bottenstein J E et al. [1980] Exp Cell Res 125:183-190) containing 10 ng/ml nerve growth factor. Cryoculture assays were terminated after 24 h of incubation by fixation with 100% methanol. Neuritic growth by DRG neurons was accessed by GAP-43 immunofluorescent labeling. Epifluorescent photomicrographs were acquired as described for tissue sections. Neurite lengths were measured directly using IMAGE-PRO PLUS software (MEDIA CYBERNETICS, Silver Springs, Md.). At least 250 neurons with neurites greater than one cell body (˜15 μm) were scored for each condition in each experiment.
Many of the experiments described in the examples above performed using rat nerves also have been replicated using human nerve. […]

[3] = system: rat sciatic nerve; test: Human-to-rat acellular nerve xenograft model (GAP-43 axonal profiles); type: in vivo; details: 8-day acellular human nerve grafts in rat, 2 host rats
Method: In the following experiments, the hypothesis that chondroitinase treatment improves nerve regeneration through acellular human nerve grafts in a rat xenograft model was tested. Subunits (individual fascicles) taken from human nerves were treated en bloc with vehicle or chondroitinase ABC. Ten-mm interpositional nerve grafts were joined to the rat host sciatic nerve by epineurial neurorrhaphy reinforced with fibrin glue. Each of 2 host rats received bilateral grafts, one vehicle-treated and one chondroitinase-treated graft. Regeneration was initially examined after 8 days. Axonal growth was assessed at specified spatial intervals within the graft by scoring GAP-43-immunopositive profiles in transverse sections.

chondroitinase ABC
propensity of axons to regrow within basal laminae of the distal nerve ([1]; GAP-43/laminin double-immunolabeling): unaltered | animals in which the number of axons entering the distal nerve was greater than in the control nerve ([1]; four days after injury): 7/7 | score of axons immediately distal to the coaptation vs control nerves ([1]; four days after transection and repair, 1 U in 2 μl injected, n=7): two-fold greater | animals with increases greater than 3.5-fold ([1]; score of axons immediately distal to the coaptation, four days): 3/7 | growth-promoting properties of human nerves [2]: increased | average number of axons (GAP-43-immunopositive profiles) entering grafts vs control grafts [3]: more than three-fold greater
